Tests used:
[1] = target: T1, Voltage-dependent L-type calcium channel subunit alpha-1C (Rattus norvegicus, UniProt P22002); assay: (§1) Inhibition of L-type calcium channel measured using whole-cell patch clamp in rat ventricular myocytes; assay type: functional, cell-based, Heart, Ventricular myocyte; design: ca sol conc 2 mM, temp room
[2] = target: T1, Voltage-dependent L-type calcium channel subunit alpha-1C; assay: as §1; assay type: functional, cell-based, Heart, Ventricular myocyte; design: ca sol conc 1 mM, temp 20-24 C
[3] = target: T2, Voltage-dependent L-type calcium channel subunit alpha-1C (Cavia porcellus, UniProt O35505); assay: (§2) Inhibition of L-type calcium channel measured using whole-cell patch clamp in guinea pig ventricular myocytes; assay type: functional, cell-based, Heart, Ventricular myocyte; design: ca sol conc 1.8 mM, temp 20-22 C
[4] = target: T2, Voltage-dependent L-type calcium channel subunit alpha-1C; assay: as §2; assay type: functional, cell-based, Heart, Ventricular myocyte; design: ca sol conc 1.8 mM, temp 20-22 C; remark: listed apart in the source
[5] = target: T1, Voltage-dependent L-type calcium channel subunit alpha-1C; assay: as §1; assay type: functional, cell-based, Heart, Ventricular myocyte; design: ca sol conc 1 mM, temp 21-23 C
[6] = target: T1, Voltage-dependent L-type calcium channel subunit alpha-1C; assay: as §1; assay type: functional, cell-based, Heart, Ventricular myocyte; design: ca sol conc 1 mM, temp 21-23 C; remark: listed apart in the source
[7] = target: T2, Voltage-dependent L-type calcium channel subunit alpha-1C; assay: as §2; assay type: functional, cell-based, Heart, Ventricular myocyte; design: ca sol conc 2 mM, temp 35.5-36.5 C
[8] = target: T2, Voltage-dependent L-type calcium channel subunit alpha-1C; assay: as §2; assay type: functional, cell-based, Heart, Ventricular myocyte; design: ca sol conc 2 mM, temp room
[9] = target: T3, Voltage-dependent L-type calcium channel subunit alpha-1C (Homo sapiens, UniProt Q13936); assay: (§3) Inhibition of L-type calcium channel measured using […] kidney cells heterologically expressing alpha-1C subunit; assay type: functional, cell-based, HEK293; design: ca sol conc 0 mM, temp 37 C
[10] = target: T1, Voltage-dependent L-type calcium channel subunit alpha-1C; assay: as §1; assay type: functional, cell-based, Heart, Ventricular myocyte; design: ca sol conc 2 mM, temp 36-37 C
[11] = target: T1, Voltage-dependent L-type calcium channel subunit alpha-1C; assay: as §1; assay type: functional, cell-based, Heart, Ventricular myocyte; design: ca sol conc 2 mM, temp 36-37 C; remark: listed apart in the source
[12] = target: T2, Voltage-dependent L-type calcium channel subunit alpha-1C; assay: as §2; assay type: functional, cell-based, Heart, Ventricular myocyte; design: ca sol conc None mM, temp 36 C
[13] = target: T2, Voltage-dependent L-type calcium channel subunit alpha-1C; assay: as §2; assay type: functional, cell-based, Heart, Ventricular myocyte; design: ca sol conc 1.8 mM, temp 36 C
[14] = target: T2, Voltage-dependent L-type calcium channel subunit alpha-1C; assay: as §2; assay type: functional, cell-based, Heart, Ventricular myocyte; design: ca sol conc 1.8 mM, temp 36-37 C
[15] = target: T1, Voltage-dependent L-type calcium channel subunit alpha-1C; assay: as §1; assay type: functional, cell-based, Heart, Ventricular myocyte; design: ca sol conc 1.8 mM, temp room
[16] = target: T3, Voltage-dependent L-type calcium channel subunit alpha-1C; assay: (§4) Inhibition of L-type calcium channel measured using 2-electrode voltage-clamp in Xenopus oocyte heterologically expressing alpha-1C subunit; assay type: functional, cell-based; design: ca sol conc 0 mM, temp room
[17] = target: T3, Voltage-dependent L-type calcium channel subunit alpha-1C; assay: as §4; assay type: functional, cell-based; design: ca sol conc 0 mM, temp room; remark: listed apart in the source
[18] = target: T1, Voltage-dependent L-type calcium channel subunit alpha-1C; assay: as §1; assay type: functional, cell-based, Heart, Ventricular myocyte; design: ca sol conc 2 mM, temp 22-23 C
[19] = target: T3, Voltage-dependent L-type calcium channel subunit alpha-1C; assay: as §3; assay type: functional, cell-based, HEK293; design: ca sol conc 0 mM, temp 21-24 C
[20] = target: T3, Voltage-dependent L-type calcium channel subunit alpha-1C; assay: as §3; assay type: functional, cell-based, HEK293; design: ca sol conc 0 mM, temp 21-24 C; remark: listed apart in the source
[21] = target: T1, Voltage-dependent L-type calcium channel subunit alpha-1C; assay: as §1; assay type: functional, cell-based, Heart, Ventricular myocyte; design: ca sol conc 1.8 mM, temp 22-24 C
[22] = target: T2, Voltage-dependent L-type calcium channel subunit alpha-1C; assay: as §2; assay type: functional, cell-based, Heart, Ventricular myocyte; design: ca sol conc 1.8 mM, temp 20-25 C
[23] = target: T1, Voltage-dependent L-type calcium channel subunit alpha-1C; assay: as §1; assay type: functional, cell-based, Heart, Ventricular myocyte; design: ca sol conc 0 mM, temp room
[24] = target: T3, Voltage-dependent L-type calcium channel subunit alpha-1C; assay: as §3; assay type: functional, cell-based, HEK293; design: ca sol conc 0 mM, temp 20-25 C
[25] = target: T3, Voltage-dependent L-type calcium channel subunit alpha-1C; assay: as §3; assay type: functional, cell-based, HEK293; design: ca sol conc 0 mM, temp room
[26] = target: T3, Voltage-dependent L-type calcium channel subunit alpha-1C; assay: as §3; assay type: functional, cell-based, HEK293; design: ca sol conc 0 mM, temp room; remark: listed apart in the source
[27] = target: T2, Voltage-dependent L-type calcium channel subunit alpha-1C; assay: as §2; assay type: functional, cell-based, Heart, Ventricular myocyte; design: ca sol conc 1.8 mM, temp room

T2 sequence (O35505 whole entry): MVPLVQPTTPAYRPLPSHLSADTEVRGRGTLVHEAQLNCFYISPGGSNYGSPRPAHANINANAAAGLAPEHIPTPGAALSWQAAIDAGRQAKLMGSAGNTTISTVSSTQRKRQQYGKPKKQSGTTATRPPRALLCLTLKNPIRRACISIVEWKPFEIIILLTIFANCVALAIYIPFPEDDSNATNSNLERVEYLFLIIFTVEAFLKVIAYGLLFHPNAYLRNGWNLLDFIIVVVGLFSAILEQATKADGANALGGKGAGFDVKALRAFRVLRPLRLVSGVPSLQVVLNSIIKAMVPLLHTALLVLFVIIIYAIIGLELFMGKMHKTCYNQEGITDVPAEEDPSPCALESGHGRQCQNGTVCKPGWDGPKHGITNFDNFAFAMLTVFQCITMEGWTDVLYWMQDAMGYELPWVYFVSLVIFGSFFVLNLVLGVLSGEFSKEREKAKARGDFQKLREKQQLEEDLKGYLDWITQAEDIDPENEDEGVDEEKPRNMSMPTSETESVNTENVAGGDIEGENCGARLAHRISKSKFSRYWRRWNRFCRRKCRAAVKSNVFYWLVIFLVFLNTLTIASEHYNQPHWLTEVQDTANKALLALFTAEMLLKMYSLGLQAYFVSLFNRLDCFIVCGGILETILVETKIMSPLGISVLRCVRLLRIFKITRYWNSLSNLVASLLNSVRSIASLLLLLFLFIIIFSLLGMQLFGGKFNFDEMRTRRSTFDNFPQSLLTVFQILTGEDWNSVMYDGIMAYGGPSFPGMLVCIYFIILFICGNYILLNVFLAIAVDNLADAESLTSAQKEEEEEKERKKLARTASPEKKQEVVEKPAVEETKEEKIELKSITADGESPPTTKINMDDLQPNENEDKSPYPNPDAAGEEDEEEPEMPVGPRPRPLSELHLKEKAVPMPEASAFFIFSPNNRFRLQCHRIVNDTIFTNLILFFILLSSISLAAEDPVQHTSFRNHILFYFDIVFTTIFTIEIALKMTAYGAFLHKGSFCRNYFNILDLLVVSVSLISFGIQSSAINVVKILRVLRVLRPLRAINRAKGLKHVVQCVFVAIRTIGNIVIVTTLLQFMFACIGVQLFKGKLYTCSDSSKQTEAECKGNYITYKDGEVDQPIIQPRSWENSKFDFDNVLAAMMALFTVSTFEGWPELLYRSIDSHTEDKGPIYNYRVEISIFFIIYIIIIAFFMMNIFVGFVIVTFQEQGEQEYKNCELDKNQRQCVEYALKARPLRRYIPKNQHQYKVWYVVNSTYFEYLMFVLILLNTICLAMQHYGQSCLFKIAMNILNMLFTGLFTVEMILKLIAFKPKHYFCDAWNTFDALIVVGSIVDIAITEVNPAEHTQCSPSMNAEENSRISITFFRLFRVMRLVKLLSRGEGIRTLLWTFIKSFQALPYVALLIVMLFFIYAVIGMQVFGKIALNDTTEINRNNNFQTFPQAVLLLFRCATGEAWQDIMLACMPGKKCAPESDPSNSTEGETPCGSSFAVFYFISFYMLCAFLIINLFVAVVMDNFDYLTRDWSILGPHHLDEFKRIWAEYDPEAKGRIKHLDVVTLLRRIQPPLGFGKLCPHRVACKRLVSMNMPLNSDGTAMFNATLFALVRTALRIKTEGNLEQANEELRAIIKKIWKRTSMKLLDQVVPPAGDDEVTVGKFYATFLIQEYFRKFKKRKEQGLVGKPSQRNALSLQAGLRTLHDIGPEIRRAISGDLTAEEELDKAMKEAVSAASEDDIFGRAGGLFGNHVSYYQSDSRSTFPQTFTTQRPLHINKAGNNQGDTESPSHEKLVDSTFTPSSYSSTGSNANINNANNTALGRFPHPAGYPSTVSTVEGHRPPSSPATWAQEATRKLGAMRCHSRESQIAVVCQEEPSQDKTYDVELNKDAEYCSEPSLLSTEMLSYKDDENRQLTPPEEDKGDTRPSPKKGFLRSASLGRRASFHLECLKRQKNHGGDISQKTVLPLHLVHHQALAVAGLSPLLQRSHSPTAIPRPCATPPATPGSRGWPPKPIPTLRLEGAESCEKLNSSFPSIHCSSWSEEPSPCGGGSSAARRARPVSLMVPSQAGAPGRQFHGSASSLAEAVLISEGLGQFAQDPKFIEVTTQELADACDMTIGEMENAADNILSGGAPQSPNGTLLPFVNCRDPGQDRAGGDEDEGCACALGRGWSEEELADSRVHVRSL
T3 sequence (Q13936 whole entry): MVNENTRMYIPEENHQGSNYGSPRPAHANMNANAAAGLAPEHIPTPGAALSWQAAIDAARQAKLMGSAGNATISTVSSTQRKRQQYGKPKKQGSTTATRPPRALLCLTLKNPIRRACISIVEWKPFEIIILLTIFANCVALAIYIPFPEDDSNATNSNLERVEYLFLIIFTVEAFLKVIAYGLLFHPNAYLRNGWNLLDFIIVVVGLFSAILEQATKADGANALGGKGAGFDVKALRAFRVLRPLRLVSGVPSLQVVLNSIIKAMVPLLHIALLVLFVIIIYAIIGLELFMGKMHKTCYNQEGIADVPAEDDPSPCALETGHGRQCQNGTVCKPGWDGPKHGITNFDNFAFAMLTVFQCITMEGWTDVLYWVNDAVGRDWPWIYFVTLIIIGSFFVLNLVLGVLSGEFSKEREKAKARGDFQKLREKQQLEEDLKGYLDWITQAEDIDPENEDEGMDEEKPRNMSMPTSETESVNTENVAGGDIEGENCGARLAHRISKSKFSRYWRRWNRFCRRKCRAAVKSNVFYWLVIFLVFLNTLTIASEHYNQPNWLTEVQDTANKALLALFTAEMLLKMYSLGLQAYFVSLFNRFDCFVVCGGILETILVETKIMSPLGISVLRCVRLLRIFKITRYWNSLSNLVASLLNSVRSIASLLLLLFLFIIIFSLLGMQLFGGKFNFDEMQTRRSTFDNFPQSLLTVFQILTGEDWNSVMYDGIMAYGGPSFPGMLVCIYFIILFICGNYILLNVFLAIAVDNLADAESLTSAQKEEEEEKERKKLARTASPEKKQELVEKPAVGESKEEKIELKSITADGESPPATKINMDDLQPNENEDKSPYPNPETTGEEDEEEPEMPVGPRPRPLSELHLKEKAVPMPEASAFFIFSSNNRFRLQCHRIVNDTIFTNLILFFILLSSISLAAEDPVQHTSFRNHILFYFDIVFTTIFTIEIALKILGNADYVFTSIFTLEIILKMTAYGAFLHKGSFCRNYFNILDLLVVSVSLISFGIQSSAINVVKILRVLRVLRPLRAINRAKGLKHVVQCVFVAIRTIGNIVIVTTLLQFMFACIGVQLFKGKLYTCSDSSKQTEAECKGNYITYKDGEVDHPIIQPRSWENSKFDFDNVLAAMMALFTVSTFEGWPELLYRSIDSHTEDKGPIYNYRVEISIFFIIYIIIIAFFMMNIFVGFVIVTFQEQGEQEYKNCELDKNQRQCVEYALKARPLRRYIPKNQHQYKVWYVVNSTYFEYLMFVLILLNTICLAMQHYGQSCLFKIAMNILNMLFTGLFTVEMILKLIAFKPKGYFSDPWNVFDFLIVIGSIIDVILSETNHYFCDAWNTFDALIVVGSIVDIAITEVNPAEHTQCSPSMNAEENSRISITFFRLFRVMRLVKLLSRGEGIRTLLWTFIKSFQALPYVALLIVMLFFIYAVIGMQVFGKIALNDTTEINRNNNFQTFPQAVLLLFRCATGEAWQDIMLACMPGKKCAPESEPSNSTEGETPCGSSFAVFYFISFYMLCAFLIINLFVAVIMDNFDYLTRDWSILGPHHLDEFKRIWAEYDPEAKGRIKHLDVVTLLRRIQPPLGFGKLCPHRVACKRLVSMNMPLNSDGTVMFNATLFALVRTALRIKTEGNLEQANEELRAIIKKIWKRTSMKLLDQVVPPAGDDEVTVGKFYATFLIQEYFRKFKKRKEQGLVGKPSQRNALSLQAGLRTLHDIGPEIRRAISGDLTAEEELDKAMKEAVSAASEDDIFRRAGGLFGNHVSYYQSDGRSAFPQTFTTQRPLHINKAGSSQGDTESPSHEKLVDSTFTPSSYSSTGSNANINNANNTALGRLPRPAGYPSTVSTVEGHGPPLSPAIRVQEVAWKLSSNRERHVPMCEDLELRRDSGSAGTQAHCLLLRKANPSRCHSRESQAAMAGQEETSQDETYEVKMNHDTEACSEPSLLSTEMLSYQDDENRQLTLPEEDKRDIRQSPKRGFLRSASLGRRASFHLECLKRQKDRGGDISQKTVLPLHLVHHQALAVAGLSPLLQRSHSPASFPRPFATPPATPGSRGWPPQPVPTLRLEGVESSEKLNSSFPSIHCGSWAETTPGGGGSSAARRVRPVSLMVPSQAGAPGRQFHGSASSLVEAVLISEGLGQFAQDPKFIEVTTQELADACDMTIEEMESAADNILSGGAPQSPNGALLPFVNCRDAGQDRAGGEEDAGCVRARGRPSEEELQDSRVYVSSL

CN(C)CCC=C1c2ccccc2CCc2ccccc21 [AMITRIPTYLINE]
IC50 [1]: 3.75 µM | IC50 [2]: 23.2 µM

CC(C)COCC(CN(Cc1ccccc1)c1ccccc1)N1CCCC1 (stereo unspecified) [BEPRIDIL]
IC50 [3]: 2.6 µM | IC50 [4]: 0.5 µM

COc1ccc(CCN(C)CCCOc2ccc(S(=O)(=O)c3c(C(C)C)cn4ccccc34)cc2)cc1OC [FANTOFARONE]
IC50 [5]: 0.022 µM | IC50 [6]: 9 µM

CN1CCCC(n2nc(Cc3ccc(Cl)cc3)c3ccccc3c2=O)CC1 (stereo unspecified) [AZELASTINE]
IC50 [7]: 20.2 µM

COc1ccc([C@@H]2Sc3ccccc3N(CCN(C)CCc3ccc(OC)c(OC)c3)C(=O)[C@@H]2OC(C)=O)cc1
IC50 [8]: 0.0257 µM

C[C@]12CC[C@@H]3c4ccc(O)cc4CC[C@H]3[C@@H]1CC[C@@H]2O [ESTRADIOL]
IC50 [9]: 50 µM

Cc1cccc(CCN2CCC(C(=O)c3ccc(NS(C)(=O)=O)cc3)CC2)n1
IC50 [4]: 441 µM

CCCCC/C=C\C/C=C\C/C=C\C/C=C\CCCC(=O)O [ARACHIDONIC ACID]
IC50 [10]: 5.8 µM | IC50 [11]: 8.5 µM

COC(=O)C1=C(C)NC(C)=C(C(=O)OCC(C)C)C1c1ccccc1[N+](=O)[O-] (stereo unspecified) [NISOLDIPINE]
IC50 [12]: 0.73 µM | IC50 [13]: 0.08 µM

CCCC(=O)N1CCCN(c2nc(N)c3cc(OC)c(OC)cc3n2)CC1 [BUNAZOSIN]
IC50 [14]: 60 µM

CCCC[N+]1(CCCC(=O)c2ccc(F)cc2)CCC(O)(c2ccc(Cl)cc2)CC1 (stereo unspecified)
IC50 [15]: 0.17 µM

CCN(CC)CC#CCOC(=O)C(O)(c1ccccc1)C1CCCCC1 (stereo unspecified) [OXYBUTYNIN]
IC50 [13]: 16.1 µM

COC(=O)C1=C(C)NC(C)=C(C(=O)OC2CCCN(Cc3ccccc3)C2)C1c1cccc([N+](=O)[O-])c1 (stereo unspecified) [BENIDIPINE]
IC50 [16]: 13.8 µM | IC50 [17]: 4.9 µM

CN(C)CCN1C(=O)c2ccccc2N(C)c2ccccc21 [DIBENZEPIN]
IC50 [2]: 364 µM

CCN(CC)CCCC(C)Nc1c2ccc(Cl)cc2nc2ccc(OC)cc12 (stereo unspecified) [QUINACRINE]
IC50 [18]: 5.2 µM

C[C@]12CC[C@H]3[C@@H](CCC4=CC(=O)CC[C@@]43C)[C@@H]1CC[C@@H]2O [TESTOSTERONE]
IC50 [19]: 0.0384 µM | IC50 [20]: 0.034 µM

O=c1c(-c2ccc(O)cc2)coc2cc(O)ccc12 [DAIDZEIN]
IC50 [21]: 12 µM

Fc1ccc(C(OCCN2CCN(CCCc3ccccc3)CC2)c2ccc(F)cc2)cc1 [VANOXERINE]
IC50 [22]: 0.32 µM

O=C(O)Cc1ccccc1Nc1c(Cl)cccc1Cl [DICLOFENAC]
IC50 [23]: 12.9 µM

COc1ccc(CCN(C)CCCC(C#N)(c2cc(OC)c(OC)c(OC)c2)C(C)C)cc1OC (stereo unspecified) [GALLOPAMIL]
IC50 [24]: 0.017 µM

FC(F)(F)C(Cl)Br (stereo unspecified) [HALOTHANE]
IC50 [25]: 1800 µM | IC50 [26]: 14500 µM

Clc1ccccc1C(c1ccccc1)(c1ccccc1)n1ccnc1 [CLOTRIMAZOLE]
IC50 [20]: 0.59 µM | IC50 [27]: 20 µM

From ChEMBL document CHEMBL3436046, “Predictive model for L-type channel inhibition: multichannel block in QT prolongation risk assessment” (J Appl Toxicol, 2012)
